Test [1] has as its system fourteen human cell lines. The experiment in a line: Cytotoxicity, span over the whole cell panel. Type of test: cell-based. The note with it: span of the IC50 values over all fourteen cell lines, read-out: IC50 values, range against fourteen human cell lines. From the text:
(§1) The cell growth inhibitory activities of compounds 1–3 against fourteen different human cell lines (human liver cell line LX-2; hepatocellular cancer line HEPG2; human intestinal epithelial cell line NCM460; colorectal cancer cell lines HCT116 and SW480; normal human breast cell line MCF-10A; breast cancer cell line MCF7; triple-negative breast cancer cell lines MDA-MB-231, MDA-MB-468, and Bt-549; human umbilical vein endothelial cell line; lung cancer cell line A549; cervical cancer cell line Hela; and cholangiocarcinoma cell line RBE) were tested according to the previously published methods. SPSS software version 22.0 was used to test the IC50 values. Cisplatin and adriamycin were used as positive control agents, and all the experiments were carried out in triplicate.

The test system of test [2] is Staphylococcus aureus 991. The experiment in a line: Antibacterial MIC, CLSI microdilution. The note with it: Staphylococcus aureus 991; 37 °C, 16–18 h; read-out: MIC. It is filed as cell-based. Here is the method:
(§2) An antibacterial activity test of compounds 1–3 was conducted according to a standard protocol provided by the Clinical and Laboratory Standards Institute (CLSI). Sixteen bacterial strains were used, including Staphylococcus aureus ATCC 29213, Staphylococcus aureus 16339, Staphylococcus aureus 1862, Staphylococcus aureus 3090, Staphylococcus aureus 991, Staphylococcus aureus 669, Staphylococcus aureus 745324, Staphylococcus aureus 16162, Staphylococcus aureus (cfr) GDE4P037P, Enterococcus faecalis ATCC 29212, Enterococcus faecalis 36950, Micrococcus luteus ML01, MRSA, Bacillus subtilis BS01, Enterococcus gallinarum 5F52C, and Enterococcus faecium 36711. Compounds 1–3 were dissolved in DMSO at a concentration of 3.2 mg/mL, and vancomycin and ampicilin were used as antibacterial control agents. […] All the assays were carried out in triplicate.

The test system of test [3] is Staphylococcus aureus 669. Briefly: Antibacterial MIC, CLSI microdilution. It is filed as cell-based. The note with it: Staphylococcus aureus 669; 37 °C, 16–18 h; read-out: MIC. On the procedure:
as §2
Background: Dilution methods test growth across graded concentrations, often in twofold steps.

The test system of the next test is Micrococcus luteus ML01. Briefly: Antibacterial MIC, CLSI microdilution. Type of test: cell-based. The following applies: 37 °C, 16–18 h. Here is the method: as §2
Another test concerns Bacillus subtilis BS01. Briefly: Antibacterial MIC, CLSI microdilution. It is filed as cell-based. The note with it: Bacillus subtilis BS01; 37 °C, 16–18 h; read-out: MIC. Here is the method: as §2
The test system of test [4] is Enterococcus faecium 36711. Briefly: Antibacterial MIC, CLSI microdilution. Type of test: cell-based. The note with it: Enterococcus faecium 36711; 37 °C, 16–18 h; read-out: MIC. Here is the method: as §2
Test [5] relates to Enterococcus faecalis ATCC 29212. The experiment in a line: Antibacterial MIC, CLSI microdilution. It is filed as cell-based. The following applies: ATCC29212; Enterococcus faecalis ATCC 29212; 37 °C, 16–18 h; read-out: MIC. Here is the method:
as §2

Test [6] deals with Staphylococcus aureus ATCC 29213. Briefly: Antibacterial MIC, CLSI microdilution. It is filed as cell-based. The note with it: ATCC29213; Staphylococcus aureus ATCC 29213; 37 °C, 16–18 h; read-out: MIC. On the procedure: as §2
For test [7], the system named is Staphylococcus aureus 1862. The experiment in a line: Antibacterial MIC, CLSI microdilution. Type of test: cell-based. The note with it: Staphylococcus aureus 1862; 37 °C, 16–18 h; read-out: MIC. Here is the method: as §2
The test system of test [8] is Staphylococcus aureus 745324. Briefly: Antibacterial MIC, CLSI microdilution. The note with it: Staphylococcus aureus 745324; 37 °C, 16–18 h; read-out: MIC. Type of test: cell-based. On the procedure:
as §2

In test [9] the test system is Staphylococcus aureus 3090. Briefly: Antibacterial MIC, CLSI microdilution. The note with it: Staphylococcus aureus 3090; 37 °C, 16–18 h; read-out: MIC. Type of test: cell-based. On the procedure:
as §2

Test [10] has as its system Staphylococcus aureus 16339. Briefly: Antibacterial MIC, CLSI microdilution. It is filed as cell-based. The following applies: Staphylococcus aureus 16339; 37 °C, 16–18 h; read-out: MIC. Here is the method:
as §2

Test [11] deals with Staphylococcus aureus (cfr) GDE4P037P. Briefly: Antibacterial MIC, CLSI microdilution. Type of test: cell-based. The following applies: Staphylococcus aureus (cfr) GDE4P037P; 37 °C, 16–18 h; read-out: MIC. Here is the method:
as §2

Test [12] relates to Enterococcus gallinarum 5F52C. The experiment in a line: Antibacterial MIC, CLSI microdilution. The following applies: Enterococcus gallinarum 5F52C; 37 °C, 16–18 h; read-out: MIC. It is filed as cell-based. Here is the method:
as §2

Test [13] has as its system Enterococcus faecalis 36950. Briefly: Antibacterial MIC, CLSI microdilution. It is filed as cell-based. The note with it: Enterococcus faecalis 36950; 37 °C, 16–18 h; read-out: MIC. On the procedure: as §2
The subject of test [14] is Staphylococcus aureus 16162. Briefly: Antibacterial MIC, CLSI microdilution. It is filed as cell-based. The following applies: Staphylococcus aureus 16162; 37 °C, 16–18 h; read-out: MIC. Here is the method:
as §2

A further test has as its system MRSA. Briefly: Antibacterial MIC, CLSI microdilution. Type of test: cell-based, Staphylococcus aureus. The note with it: Staphylococcus aureus, 37 °C, 16–18 h, read-out: MIC. On the procedure:
as §2

Test [15] has as its system breast cancer cell line MCF7. Briefly: Cell growth inhibitory (cytotoxic) activity assay. It is filed as cell-based, human. The following applies: Homo sapiens. From the text:
SPSS software version 22.0 was used to test the IC50 values.

Test [16] concerns Staphylococcus simulans AKA1. Briefly: Antibacterial MIC, CLSI microdilution. It is filed as cell-based. The following applies: Staphylococcus simulans AKA1; 37 °C, 16–18 h; read-out: MIC.
Test [17] concerns triple-negative breast cancer cell line Bt-549. The experiment in a line: Cell growth inhibitory (cytotoxic) activity assay. Type of test: cell-based, human. The following applies: Homo sapiens; Bt-549 (TNBC).
From the text: as §1

The subject of test [18] is hepatocellular cancer line HEPG2. Briefly: Cell growth inhibitory (cytotoxic) activity assay. It is filed as cell-based, human. The following applies: Homo sapiens.
From the text: as §1

For test [19], the system named is triple-negative breast cancer cell line MDA-MB-468. Briefly: Cell growth inhibitory (cytotoxic) activity assay. Type of test: cell-based, human. The following applies: Homo sapiens; MDA-MB-468 (TNBC).
From the text: as §1

The test system of test [20] is triple-negative breast cancer cell line MDA-MB-231. The experiment in a line: Cell growth inhibitory (cytotoxic) activity assay. Type of test: cell-based, human. The note with it: Homo sapiens; MDA-MB-231 (TNBC).
From the text: as §1

Test [21] deals with colorectal cancer cell line SW480. Briefly: Cell growth inhibitory (cytotoxic) activity assay. Type of test: cell-based, human. The following applies: for IC50: Homo sapiens, SW480 (colorectal cancer).
From the text: as §1

For test [22], the system named is lung cancer cell line A549. The experiment in a line: Cell growth inhibitory (cytotoxic) activity assay. Type of test: cell-based, human. The following applies: Homo sapiens.
From the text: as §1

Test [23] relates to colorectal cancer cell line HCT116. Briefly: Cell growth inhibitory (cytotoxic) activity assay. Type of test: cell-based, human. The following applies: Homo sapiens, HCT-116.
From the text: as §1

The subject of test [24] is cervical cancer cell line Hela. The experiment in a line: Cell growth inhibitory (cytotoxic) activity assay. The note with it: Homo sapiens. Type of test: cell-based, human.
From the text: as §1

The test system of test [25] is cholangiocarcinoma cell line RBE. Briefly: Cell growth inhibitory (cytotoxic) activity assay. Type of test: cell-based, human. The note with it: Homo sapiens.
From the text: as §1

Test [26] relates to TNBC cell lines MDA-MB-231, MDA-MB-468, and Bt-549. The experiment in a line: Cytotoxicity, span over TNBC cell lines. It is filed as cell-based. The following applies: Homo sapiens; span over MDA-MB-231, MDA-MB-468 and Bt-549; read-out: IC50 values, range against TNBC cell lines.
From the text: as §1

In test [27] the test system is human umbilical vein endothelial cell line HUVEC. Briefly: Cell growth inhibitory (cytotoxic) activity assay. It is filed as cell-based.
From the text: as §1

Test [28] relates to human intestinal epithelial cell line NCM460. The experiment in a line: Cell growth inhibitory (cytotoxic) activity assay. Type of test: cell-based. The note with it: Homo sapiens; NCM460 (normal intestinal epithelial cell line).
From the text: as §1

Test [29] deals with human liver cell line LX-2. Briefly: Cell growth inhibitory (cytotoxic) activity assay. It is filed as cell-based. The note with it: LX-2 (human liver cell line).
From the text: as §1

In test [30] the test system is normal human breast cell line MCF-10A. Briefly: Cell growth inhibitory (cytotoxic) activity assay. Type of test: cell-based. The note with it: MCF-10A (normal human breast cell line).
From the text: as §1

The subject of test [31] is methicillin-resistant Staphylococcus aureus. Further details: method as in PMID 27097765. The following applies: ref [24]; cited from earlier work.
The next test concerns Bacillus subtilis. Further details: method as in PMID 18396903. The following applies: ref [35]; cited from earlier work.
In a further test the test system is Staphylococcus lentus. The arrangement: method as in PMID 18396903. The note with it: ref [35]; cited from earlier work.
Where [32] appears, read: Micrococcus luteus, ML01, Micrococcus luteus ML01, read-out: MIC.

Consider four molecules from PMC10817512, “OSMAC-Based Discovery and Biosynthetic Gene Clusters Analysis of Secondary Metabolites from Marine-Derived Streptomyces globisporus SCSIO LCY30” (Marine Drugs, 2023).

Converted amounts (≈) assume the structure as drawn. Where two headings read alike, the source gives them in different places.

The IC50 is the concentration at which inhibition is half-maximal. Broadly, the MIC is the smallest concentration in the dilution series that meets the test's criterion for growth inhibition.

`C[C@]1(O)CC(=O)c2c(cc(O)c3c2C(=O)c2cccc(O)c2C3=O)C1` [Rabelomycin (3), rabelomycin]: the IC50 is 1.57 to 16.1 µM in test [1]; 4.48 µM in [15]; 7.85 µM in [17]; 8.64 µM in test [18]; 2.18 µM in [19]; 8.67 µM in test [20]. In addition, the IC50 in test [21] was 1.57 µM; in test [22], 5.97 µM; in test [23], 4.72 µM; in [24], 16.1 µM; in [25], 4.23 µM; in test [26], 2.18 to 8.67 µM. Moreover, the IC50 came out at 10.9 µM in test [27], 7.05 µM in test [28], 13.4 µM in test [29] and 11.3 µM in test [30]. The MIC in test [2] is 16 µg/mL (≈ 47.3 µM); in test [3], 16 µg/mL (≈ 47.3 µM); in the test on Micrococcus luteus ML01 (Micrococcus luteus ML01) it was 2 µg/mL (≈ 5.91 µM); in the test with Micrococcus luteus ML01 (setting [32]), 1 to 2 µg/mL (≈ 2.96 to 5.91 µM); in the test with Bacillus subtilis BS01, 4 µg/mL (≈ 11.8 µM); in test [4] it was 32 µg/mL (≈ 94.6 µM). The MIC in [5], in [6], in [7], in test [8], in test [9] and in test [10] was 8 µg/mL (≈ 23.6 µM) in each case. The MIC in test [11] is 4 µg/mL (≈ 11.8 µM); in [12], 32 µg/mL (≈ 94.6 µM); in test [13], 8 µg/mL (≈ 23.6 µM); in test [14], 8 µg/mL (≈ 23.6 µM); in the test on MRSA it was 8 µg/mL (≈ 23.6 µM); in [16] it was 16 µg/mL (≈ 47.3 µM). In addition, the “selective index (SI)” value in test [21] (SW480 versus normal intestinal epithelial cell line NCM460) was found to be 4.49.
Regarding (-)-Streptophenazine B, the MIC in test [31] was 4.2 µg/mL.
streptophenazine C: the MIC in the test on Bacillus subtilis is reported as 15.6 µg/mL; in the test with Staphylococcus lentus, 46.9 µg/mL.
Regarding `Cc1cc(O)c2c3c(c(O)c(C4CC(N)C(O)C(C)O4)c2c1)C(=O)c1c(O)cccc1C3=O` (stereo not drawn) [Mayamycin B (2), mayamycin B], the IC50 in [1] was 2.05 to 7.16 µM; in test [15] it was 4.15 µM; in test [17], 3.87 µM; in test [18], 6 µM; in test [19] it was 6.08 µM; in [20], 3.01 µM. Moreover, the IC50 is 2.87 µM in test [21]; 5.08 µM in [22]; 2.05 µM in test [23]; 2.8 µM in test [24]; 4.06 µM in test [25]; 3.01 to 6.08 µM in [26]. Also, the IC50 in test [27] was determined as 4.41 µM; in test [28] it was 7.16 µM; in test [29], 5.33 µM; in test [30], 5.21 µM. Moreover, the MIC was 16 µg/mL (≈ 35.6 µM) in [2]; 16 µg/mL (≈ 35.6 µM) in test [3]; 1 µg/mL (≈ 2.22 µM) against Micrococcus luteus ML01 (Micrococcus luteus ML01); 1 to 2 µg/mL (≈ 2.22 to 4.45 µM) in the test on Micrococcus luteus ML01 (setting [32]); 8 µg/mL (≈ 17.8 µM) with Bacillus subtilis BS01; 32 µg/mL (≈ 71.2 µM) in test [4]. The MIC in test [5] was determined as 16 µg/mL (≈ 35.6 µM); in [6], 16 µg/mL (≈ 35.6 µM); in test [7], 16 µg/mL (≈ 35.6 µM); in test [8], 8 µg/mL (≈ 17.8 µM); in [9] it was 8 µg/mL (≈ 17.8 µM); in [10], 16 µg/mL (≈ 35.6 µM). The MIC amounted to 8 µg/mL (≈ 17.8 µM) in test [11]; 32 µg/mL (≈ 71.2 µM) in test [12]; 8 µg/mL (≈ 17.8 µM) in [13]; 16 µg/mL (≈ 35.6 µM) in test [14]; 8 µg/mL (≈ 17.8 µM) in the test on MRSA; 64 µg/mL (≈ 142 µM) in test [16].
